Data from PubChem BioAssay AID624404 (Broad Institute, 2012).
Results filed as inconclusive are left out. Calls of active or inactive are those of the source.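 How the source made its calls: active means luciferase signal rise whose fitted curve crosses a set activity limit at or below the top valid tested dose; inconclusive means flat fit with 30 to 70% rise, or poor fit; inactive means signal falling, flat within 30%, or crossing above top dose.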

tested on: D54 LucT luciferase reporter counterscreen, luminescence, 24 h; assay: luciferase activators in glycosylation-insensitive reporter cells, dose response, counter-screen for N-linked glycosylation inhibitor project, D54 LucT cells, luminescence, cherry pick (AID 624404)

Q: `CC(=O)Nc1ccc(NC(=O)c2ccc(-c3c(C)noc3C)c3ccoc23)cc1` was tested. Which AC35 did it give?
A: The AC35 was 5690 nM.

Q: How did the AC35 turn out when `C/C(=N\NC(=O)c1c(Cl)c(C)nn1C)c1ccc(NC(=O)C2CCC2)cc1` was run?
A: Its AC35 is 475 nM.

Q: With `CSc1nnc(-c2sccc2OCc2ccccc2)n1C` as the molecule, how does the AC35 read?
A: The AC35 was 929 nM.

Q: `COc1ccc2[nH]c(C(=O)N/N=C/c3ccccc3OC)cc2c1` was tested. Which AC35 did it give?
A: The AC35 was 1170 nM.

Q: `COc1ccc(CCCC(=O)NCc2ccccc2)cc1C` was tested. Which AC35 did it give?
A: The AC35 was 2780 nM.

Q: With `COc1cc2[nH]c(C(=O)Nc3ccc(F)cc3)cc2c(OC)c1OC` as the molecule, how does the AC35 read?
A: Its AC35 is 98.2 nM.

Q: Which AC35 does the source give for `CC1(C(=O)NCCC(F)(F)F)Cc2c(-c3cccc(C(F)(F)F)c3)ccnc2O1` (centres undefined) here?
A: The AC35 was > 19500 nM (inactive).

Q: Which AC35 does the source give for `Cc1cc(NCCN2CCOCC2)c2ccc3ccccc3c2n1` here?
A: Its AC35 is 17.8 nM.

Q: For `C=CCn1c(SCc2c(C)noc2C)nc2sc(C)c(C)c2c1=O`, which AC35 is on record?
A: Its AC35 is 2020 nM.

Q: `COc1cccc(-c2cnc3c(NC(C)=O)cc(-c4cc(F)ccc4OC)cn23)c1` was tested. Which AC35 did it give?
A: The AC35 was 4270 nM.

Q: `Nc1nc(-c2ccccc2)cc(-c2ccccc2O)n1` was tested. Which AC35 did it give?
A: The AC35 was 1760 nM.

Q: How did the AC35 turn out when `OCC1OC(n2cnc3c(SCc4ccccc4)ncnc32)C(O)C1O` (centres undefined) was run?
A: Its AC35 is 733 nM.

Q: For `COc1cc2c(cc1OC)C(=O)N1[C@H]3c4cc(C)ccc4OC[C@@H]3[C@H](c3ccccc3)[C@]1(C)C(=O)N2`, which AC35 is on record?
A: The AC35 was 131 nM.

Q: Which AC35 does the source give for `Cn1cc(C(=O)N/N=C/C(Br)=C/c2ccccc2)ccc1=O` here?
A: Its AC35 is 3760 nM.

Q: With `CC(C)c1ccc(OCc2ccc(C(=O)N3CCCC3)o2)cc1` as the molecule, how does the AC35 read?
A: The AC35 was 850 nM.

Q: `O=C(N/N=C/c1cccs1)c1cc(-c2cccc3ccccc23)n[nH]1` was tested. Which AC35 did it give?
A: Its AC35 is 3530 nM.

Q: With `COc1ccc2c(c1)OC[C@H]1[C@H]2N2C(=O)c3cc(Cl)ccc3NC(=O)[C@@]2(C)[C@H]1c1ccccc1` as the molecule, how does the AC35 read?
A: The AC35 was 996 nM.

Q: Which AC35 does the source give for `OCCCCCN=c1cc(-c2ccccc2)oc2ccc(Cl)cc12` here?
A: The AC35 was 2190 nM.

Q: Which AC35 does the source give for `CCc1ccc(C(=O)Nc2ccc3c(c2)n(C)c(=O)n3C)cc1` here?
A: The AC35 was 2630 nM.

Q: Which AC35 does the source give for `CCN(CC)S(=O)(=O)c1cccc(C(=O)OCC(=O)Nc2ccc3c(c2)c2ccccc2n3CC)c1` here?
A: The AC35 was 1390 nM.

Q: For `CCOC(=O)c1c(C)c(C(=O)Nc2ccc(N(C)C)cc2)c(C)n1CC`, which AC35 is on record?
A: Its AC35 is 3560 nM.

Q: `COc1ccc(CNC(=O)c2cccc3c(-c4cnn(C)c4)coc23)cc1OC` was tested. Which AC35 did it give?
A: Its AC35 is 1300 nM.

Q: Which AC35 does the source give for `O=c1cc(-c2ccc(O)cc2)oc2cc(O)c(C3OC(CO)C(O)C(O)C3O)c(O)c12` (centres undefined) here?
A: Its AC35 is 15.1 nM.

Q: Which AC35 does the source give for `COc1ccc(C2NC(=S)NC3=C2CCCC3=C2SCCS2)cc1` (centres undefined) here?
A: The AC35 was 186 nM.

Q: Which AC35 does the source give for `CCOC(=O)c1cnc2c(ccc3ccccc32)c1NCCCN(C)C` here?
A: The AC35 was 515 nM.

Q: Which AC35 does the source give for `CC1(C(=O)NCc2ccccc2)Cc2c(-c3cccc(C(N)=O)c3)ccnc2O1` (centres undefined) here?
A: The AC35 was 651 nM.

Q: How did the AC35 turn out when `c1ccc2c(c1)C1=NCCN1c1ccccc1-2` was run?
A: The AC35 was 6250 nM.

Q: For `COc1ccccc1-c1cc(NC=O)c2ncc(-c3cccc(C(=O)N(C)C)c3)n2c1`, which AC35 is on record?
A: Its AC35 is 48.3 nM.

Q: For `C#CCCOC(=O)N1C2=NC(C(=O)OC)=C(C(=O)OC)[C@@H]3N(C)c4ccccc4[C@]23C[C@H]1C(=O)OC`, which AC35 is on record?
A: The AC35 was 934 nM.

Q: Which AC35 does the source give for `CCCCCCn1c(=O)n2n(c1=O)[C@@H]1CN(S(=O)(=O)c3ccc(C)cc3)C[C@]1(O)[C@@H](OC(=O)NCc1ccccc1)C2` here?
A: Its AC35 is 717 nM.

Q: For `N=c1c(S(=O)(=O)c2ccc(Cl)cc2)cc2c(=O)n3ccccc3nc2n1CCc1ccccc1`, which AC35 is on record?
A: The AC35 was 564 nM.

Q: `CC(=O)c1sc(Nc2cccc3ccccc23)nc1C` was tested. Which AC35 did it give?
A: The AC35 was 4070 nM.

Q: `O=C1NC(=O)N(Cc2ccccc2)C(=O)/C1=C/C=C/c1ccco1` was tested. Which AC35 did it give?
A: The AC35 was 5280 nM.

Q: How did the AC35 turn out when `COc1ccc(S(=O)(=O)NCc2ccccn2)cc1NC(=O)c1ccccc1C` was run?
A: Its AC35 is 3110 nM.

Q: For `COc1ccc(C(=O)c2ccc(OC)c(N)c2)cc1N`, which AC35 is on record?
A: Its AC35 is 827 nM.

Q: For `NC(=O)c1cccc(-c2coc3c(C(=O)NCc4ccccc4)cccc23)c1`, which AC35 is on record?
A: Its AC35 is 3070 nM.

Q: With `COc1ccccc1-c1csc(C(NC(C)=O)c2cccc(F)c2)n1` (centres undefined) as the molecule, how does the AC35 read?
A: The AC35 was 590 nM.

Q: `Cc1cc2nnc(SCC(=O)NCc3ccco3)n2c2ccccc12` was tested. Which AC35 did it give?
A: Its AC35 is 16600 nM.

Q: With `CC(=O)Nc1ccc(C(=O)N/N=C/c2ccccc2OCc2ccccc2)cc1` as the molecule, how does the AC35 read?
A: The AC35 was 4360 nM.

Q: How did the AC35 turn out when `COc1ccc(NC(=O)C2Cc3c(-c4cccc(C(C)=O)c4)ccnc3O2)cc1` (centres undefined) was run?
A: Its AC35 is 90.9 nM.

Q: `COc1ccc(-c2oc3cc(O)c(OC)c(O)c3c(=O)c2OC)cc1O` was tested. Which AC35 did it give?
A: Its AC35 is 909 nM.

Q: For `CN(C)C(CNC(=O)CSc1nc2sc3c(c2c(=O)n1C)CCCC3)c1ccccc1` (centres undefined), which AC35 is on record?
A: Its AC35 is 682 nM.

Q: With `CC1(C)Cc2c(c(N3CCOCC3)nc3snc(N)c23)CO1` as the molecule, how does the AC35 read?
A: Its AC35 is 1200 nM.

Q: How did the AC35 turn out when `Cc1nnc2ccc(-c3ccc(NC(=O)c4ccco4)cc3)nn12` was run?
A: Its AC35 is 644 nM.

Q: Which AC35 does the source give for `COc1ccc(-c2cc3ccccc3oc2=O)cc1NC(=O)c1ccc([N+](=O)[O-])o1` here?
A: Its AC35 is 837 nM.

Q: Which AC35 does the source give for `CCOc1cc(N2CCOCC2)c(OCC)cc1NC(=O)c1[nH]c(C)c(C(C)=O)c1C` here?
A: Its AC35 is 10.7 nM.

Q: Which AC35 does the source give for `COc1ccc(C(=O)c2sc(Nc3ccccc3)nc2N)cc1` here?
A: Its AC35 is 645 nM.

Q: `COc1cc(C(=O)Nc2ccc3c(c2)nc(C)n3C)cc(OC)c1OC` was tested. Which AC35 did it give?
A: Its AC35 is 1130 nM.

Q: With `CC[C@H](C)C(=O)O[C@H]1CCC=C2C=C[C@H](C)[C@H](CC[C@@H]3C[C@@H](O)CC(=O)O3)[C@H]21` as the molecule, how does the AC35 read?
A: The AC35 was 1260 nM.

Q: For `COc1ccc([C@@H]2[C@@H]3C(=O)N(C(C)(C)C)C(=O)[C@@H]3[C@]3(Cc4ccccc4)C(=O)N(c4cccc(Br)c4)C(=O)N23)cc1`, which AC35 is on record?
A: Its AC35 is 762 nM.

Q: For `COc1cc(C(=O)N/N=C/c2ccc3c(c2)c2ccccc2n3C)ccc1O`, which AC35 is on record?
A: The AC35 was 9590 nM.

Q: For `CC(Nc1nc(-c2ccccc2O)nc2ccccc12)c1ccccc1` (centres undefined), which AC35 is on record?
A: Its AC35 is 39.5 nM.

Q: For `CC(=O)c1cccc(Nc2cc(C)nc3c(C)cc(C)cc23)c1`, which AC35 is on record?
A: Its AC35 is 23.4 nM.

Q: How did the AC35 turn out when `COc1cc(-c2[nH]ncc2CN2CCSCC2)cc(OC)c1OC` was run?
A: The AC35 was 3500 nM.
